Data as given in patent US20230145868A1, “UREA INHIBITORS OF MICRO-RNA” (Board of Regents, The University of Texas System, priority 2020, published 2023).
Where two headings read alike, the source gives them in different places.

Tests used:
[1] = tested on: miR-10b; assay: Luciferase reporter assay of miR-10b inhibition, MCF7 cells; type: cell-based; conditions: Homo sapiens, MCF7, 48 h
Excerpt: To identify miR-10b inhibitors, a luciferase reporter system was designed with complementary oligonucleotides for miR-10b.This luciferase reporter would repress Renilla luciferase signal in the presence of a functional mature miR-10b. However, in the presence of a small molecule that can inhibit mature miR-10b expression or affect its downstream function, the luciferase expression is restored again.
The PsiCHECK™-2 luciferase reporter vector was acquired from Promega™, Complementary oligonucleotides for hsa-miR-10b were designed based on the mature miRNA sequence and obtained from Thermo Fisher Scientific. In the design of the microRNA target sequence, several base pairs were added to have two different restriction sites recognizable by the enzyme SgfI at one side, and PmeI on the other (present in the vector as well). In addition, the insert was designed with a restriction site for SacI enzyme in order to have an additional site to digest the vector when monitoring colonies for the presence/absence of the insert. The designed oligonucleotides were annealed as follows: Complementary strands were mixed at a 1:1 molar ratio in a micro centrifuge tube. The mixture was diluted to a final concentration of 1 pmol/μl with a buffer solution of 10 mM Tris, 1 mM EDTA, and 50 mM NaCl (pH 8.0). Mixes were incubated at 95° C. for 5 min, and then the heat was reduced gradually for 70 min, until reaching 4° C. The annealed oligonucleotides were digested along with the PsiCHECK™2 vector with SgfI and PmeI and ligated at the 3′-UTR (downstream) of the Renilla luciferase reporter gene in the PsiCHECK™-2vector. Insert sequences were further confirmed in two ways: enzymatic digestion and sequencing.
MCF7 cells were seeded 24 h prior to transfection in 96 well plates (2.0×10^4 cells/well). For testing the sensitivity of the assay, antagomiRs and pre-miRs against miR-10b were used at a final concentration of 100 nM. For testing small molecule miRNA inhibitors, the compounds of interest were added to a final concentration of 10 μM. The assay was done in MCF7 or MDA-MB-231 cells at approximately 60% confluence using Lipofectamine in Opti-Mem media with the final vector concentration of 250 ng/mL. All transfections were performed in triplicate for statistical analysis. The cells were incubated at 37° C. for 6 h, followed by replacement of the transfected media with fresh media. After 48 h incubation, the media was removed, and cells were lysed and assayed with a Dual Luciferase Assay Kit (Promega) using a Vi-Tech luminometer. The ratio of Renilla to firefly luciferase expression was calculated for each of the triplicates.

[2] = tested on: mature miR-10b; assay: RT-qPCR of mature miR-10b; type: cell-based, human; conditions: normalized to U6, vs DMSO
Experimental: Potential small molecule miRNA inhibitors were tested in MCF7 cells, a metastatic cell line (MM231) and an HCC cell line (HepG2) through RT-qPCR. Cells were seeded in 12-well plates 24 h before treatments at a confluence of 50-60%. They were treated at a concentration of 10 μM linifanib (positive control) or DMSO (negative control), and RNA was collected after 24 and 48 h. MicroRNA expression was tested using TaqMan microRNA assay (Applied Biosystems). The cDNA was synthesized using TaqMan Reverse Transcription Reagents kit (Applied Biosystems) and employed for quantitative RT-qPCR analysis together with TaqMan probes and SsoFastSupermix (Bio-rad). Primers and probes were purchased for hsa-miR-10b, hsa-pri-miR-10b, U6, and U48 snRNA that was used as an internal control.
To detect the levels of the precursor sequences, cDNA was synthesized using the SuperScript III cDNA kit (Invitrogen). Diluted cDNA was used for RT-qPCR analysis using iQ SYBR Green Supermix (Bio-Rad) with primers designed by in-house. Experiments were performed in triplicate; treated samples were compared to the DMSO-treated controls and normalized to the internal control. Relative expression levels were calculated using the 2-ΔCt method.

[3] = tested on: AGS cell line; assay: Cell proliferation assay (WST-8 or MTS), AGS; type: cell-based, human
Experimental: (§1) IC50 dose-response curves were determined using the cell proliferation assay system. Briefly, 5,000 or 10,000 cells of each cell line were plated in 96-well microculture plates in replicates of either 4 or 6. When cells became adherent, either 5 or 10 sequentially decreasing doses of the small molecule miRNA inhibitor were diluted into new media and added to individual wells. After either 24 or 48 hours, of a tetrazolium salt such as MTS, MTT, or WST-8 was added to each well at the same time of day as treatment and incubated for either 2 or 3 h at 37° C. The OD, measuring at the appropriate wavelength for the dye, was read at on a microplate spectrophotometer.
(§2) Cell proliferation is determined using a colorimetric assay. A tetrazolium salt such as MTS, MTT, or WST-8 is reduced by dehydrogenase activities in cells to give a formazan dye, which is soluble in the tissue culture media. The amount of the formazan dye (generated by the activities of dehydrogenases in cells, and directly proportional to the number of living cells) is measured after 3 h of incubation. The OD is read at 450 nm on a microplate spectrophotometer and growth values (%) are calculated as (OD treated cells/OD untreated cells)×100. The experiments are performed in triplicate. Cell viability is also tested by bromodeoxyuridine (BrdU) test according to the instructions. 2000 MM231, MCF7 and HepG2 cells are seeded to 96-well plate. After 24 h, 10 μM DMSO or linifanib is added to each well. The OD is read at 450/550 nm on a microplate spectrophotometer, after one to seven days of the treatment. The experiments are performed in triplicate.

[4] = tested on: AsPC1 cell line; assay: Cell proliferation assay (WST-8 or MTS), AsPC1; type: cell-based, human
Experimental: as §1
as §2, with “triplicate. […]” for “triplicate. Cell viability is also tested by bromodeoxyuridine (BrdU) test according to the instructions. 2000 MM231, MCF7 and HepG2 cells are seeded to 96-well plate. After 24 h, 10 μM DMSO or linifanib is added to each well.”, “treatment. […]” for “treatment. The experiments are performed in triplicate.”

[5] = tested on: HOXD10; assay: Western blot, HOXD10 expression; type: cell-based, human; conditions: vs DMSO
Experimental: Proteins are collected from cultured cells and lysed with 10× Lysis Buffer (Cell Signaling) freshly supplemented with a complete protease inhibitor cocktail and phosphatase inhibitors (Sigma). Bradford assay is used to measure protein concentration. Proteins are separated by polyacrylamide gel (Bio-rad) electrophoresis and were transferred to a 0.2 μm nitrocellulose membrane (Bio-rad). Quantification of protein expression was conducted using the image analysis software ImageJ.

[6] = tested on: AGS cell line; assay: Migration assay, AGS; type: cell-based, human; conditions: vs DMSO
[7] = Table 6, MCF7, second biological replicant, 10 μM compound, mean of triplicate, read-out: n-fold increase in luciferase expression, Mean
[8] = Table 6, MCF7, second biological replicant, 10 μM compound, replicate #1, read-out: n-fold increase in luciferase expression, #1
[9] = Table 6, MCF7, second biological replicant, 10 μM compound, replicate #2, read-out: n-fold increase in luciferase expression, #2
[10] = Table 6, MCF7, second biological replicant, 10 μM compound, replicate #3, read-out: n-fold increase in luciferase expression, #3
[11] = 5 and 10 μM, beginning at 48 h of treatment

| Compound | fold induction at 10 µM [1, 7] | fold induction at 10 µM [1, 8] | fold induction at 10 µM [1, 9] | fold induction at 10 µM [1, 10] | level of mature miR-10b ([2]; AGS gastric cell line) | level of mature miR-10b ([2]; AsPC1 pancreatic cell line) | HOXD10 expression (Western blot) ([5]; AGS cell line) | migration [6] | also measured |
| --- | --- | --- | --- | --- | --- | --- | --- | --- | --- |
| Cc1ccc(F)c(NC(=O)Nc2ccc(-c3cccc4cn[nH]c34)cc2)c1 [Example 4, 1-(4-(1H-indazol-7-yl)phenyl)-3-(2-fluoro-5-methylphenyl)urea] | 2.54 | 4.28 | 2.09 | 1.24 | reduces the level of mature miR-10b | reduces the level of mature miR-10b | upregulated | decreased migration | fold induction at 10 µM ([1]; Table 4, MCF7, 10 μM compound, vs negative control (DMSO), mean of triplicate, read-out: n-fold increase in luciferase expression, Mean): 2.71; fold induction at 10 µM ([1]; Table 4, MCF7, 10 μM compound, vs negative control (DMSO), replicate #1, read-out: n-fold increase in luciferase expression, #1): 1.95; fold induction at 10 µM ([1]; Table 4, MCF7, 10 μM compound, vs negative control (DMSO), replicate #2, read-out: n-fold increase in luciferase expression, #2): 3.8; fold induction at 10 µM ([1]; Table 4, MCF7, 10 μM compound, vs negative control (DMSO), replicate #3, read-out: n-fold increase in luciferase expression, #3): 2.39; cell viability (proliferation ability) ([3]; 10 μM, vs DMSO): statistically significant effect; proliferation (MTS), every 24 h over 96 h [3, 11]: significant difference in proliferation; proliferation (MTS), every 24 h over 96 h [4, 11]: significant difference in proliferation; HOXD10 expression (Western blot) ([5]; AsPC1 cell line): upregulated |
| Cc1ccc(F)c(NC(=O)Nc2ccc(-c3cncnc3)cc2)c1 [Example 2, 1-(2-fluoro-5-methylphenyl)-3-(4-(pyrimidin-5-yl)phenyl)urea] | 2.44 | 2.51 | 2.84 | 1.96 | reduce the level of mature miR-10b | reduces the level of mature miR-10b | upregulated | decreased migration | fold induction at 10 µM ([1]; Table 3, MCF7, 10 μM compound, vs negative control (DMSO), mean of triplicate, read-out: n-fold increase in luciferase expression, Mean): 2.19; fold induction at 10 µM ([1]; Table 3, MCF7, 10 μM compound, vs negative control (DMSO), replicate #1, read-out: n-fold increase in luciferase expression, #1): 2.75; fold induction at 10 µM ([1]; Table 3, MCF7, 10 μM compound, vs negative control (DMSO), replicate #2, read-out: n-fold increase in luciferase expression, #2): 1.78; fold induction at 10 µM ([1]; Table 3, MCF7, 10 μM compound, vs negative control (DMSO), replicate #3, read-out: n-fold increase in luciferase expression, #3): 2.05; proliferation ([3]; 10 μM, 5 μM and 2 μM, vs DMSO): reduced proliferation; proliferation ([4]; 10 μM, vs DMSO): reduced proliferation |
